These results are taken from patent US20250289789A1, “REVERSIBLE LYSINE COVALENT MODIFIERS OF CDK2 AND USES THEREOF” (Terremoto Biosciences, Inc., priority 2023, published 2025).

Data set [1] is described as follows: Solubility determination in PBS pH 7.4. To be noted: aqueous buffer, kinetic from dmso stock; PBS pH 7.4, 2 hours, 25° C.; the listed prodrug. The class given is physicochemical. As for the experimental part: Stock solutions (10 mM DMSO, 30 μL) of each sample were placed into 96-well plate, along with 970 μL of PBS pH 7.4 were added into each vial of the cap-less solubility sample plate. The assay was performed in duplicate. A stir stick was added to each well and sealed using a molded PTFE/Silicone plug. Then the Solubility Sample plate was transferred to an Eppendorf Thermomixer Comfort plate shaker and shaken at 1100 RPM for 2 hours at 25° C. After completion the plugs and stir sticks were removed and the samples were transferred into a filter plate and filtered using a vacuum manifold. 5 μL aliquots of filtrate were taken and diluted with 5 μL DMSO and 490 μL of a 1:1 v/v mixture of H2O and acetonitrile. 200 μL of diluent was transferred to a new 96-well plate for LC-MS/MS analysis. The solution was analyzed and quantified against a standard of known concentration in DMSO using LC coupled with Mass spectral peak for identification and quantitation.

Data set [2] can be described thus: Oral bioavailability and pharmacokinetic analysis following oral administration in Nu/Nu mice. To be noted: male, in vivo; for Prodrug AUCinf: mouse, 6 mg. As for the experimental part:
Compound was administered via oral gavage in male Nu/Nu mice (n=3). The vehicle composition was 10% N-Methylpyrrolidone, 40% PEG300, 50% water (pH=4-8) at 6 mg-equivalent/mL to parent drug and a dose volume of 5 mL/Kg. Formulations were prepared freshly before dosing and stored at room temperature. Plasma samples were collected at the following time intervals: 0.5, 1, 2, 4, 8, 12, 24, 48, and 72 hours post dose (based on the start of oral dosing). Serial blood samples were collected (approximately 0.025 mL) via retro-orbital vein into K2EDTA. Whole blood was processed into plasma by centrifuge (4000 rpm for 5 minutes at 4° C.) followed by addition of 0.5 M ammonium formate (pH=3, 300% of plasma volume). Plasma samples were stored in a freezer at −75±15° C. until analysis. Plasma samples were analyzed after thawing and incubating for 1 h at 37° C. followed by protein precipitation with acetonitrile containing IS mixture (vortex 30 s, centrifugation at 4° C., 400 rpm for 15 min) and the resulting supernatant was further diluted with water before injecting onto Shimadzu 8060 LC-MS/MS system for analysis. Unknown plasma samples concentration was calibrated using standard range of 0.2 to 1 000 ng/mL for parent.
Bioavailability (% F) was calculated by comparing observed plasma concentrations of parent drug after oral administration of prodrug or parent drug to observed plasma concentrations via IV (intravenous) administration of parent drug.

Values after ≈ are worked out from the molar mass of the structure shown.

As to `COc1cc(O)c(/C=N/C(C)C)c(OCC(=O)Nc2cc([C@H]3CC[C@@H](OC(=O)N(C)N(C)C)C3)[nH]n2)c1` [Compound 172a, (1R,3S)-3-(3-(2-(3-hydroxy-2-((E)-(isopropylimino)methyl)-5-methoxyphenoxy)acetamido)-1H-pyrazol-5-yl)cyclopentyl 1,2,2-trimethylhydrazine-1-carboxylate], the solubility at 2 h in data set [1] came to 227 µM (≈ 117 µg/mL).

On to `CCCNC(=O)O[C@@H]1CC[C@H](c2cc(NC(=O)COc3cc(OC)cc(O)c3/C=N/C(C)C)n[nH]2)C1` [Compound 221a, (1R,3S)-3-(3-(2-(3-hydroxy-2-((E)-(isopropylimino)methyl)-5-methoxyphenoxy)acetamido)-1H-pyrazol-5-yl)cyclopentyl propylcarbamate], for which the solubility at 2 h in data set [1] was 156 µM (≈ 78.2 µg/mL).

On to `COc1cc(O)c(/C=N/C(C)C)c(OCC(=O)Nc2cc([C@H]3C[C@@H](OC(=O)NC(C)C)C3)[nH]n2)c1` [Compound 223a, (1s,3s)-3-(3-(2-(3-hydroxy-2-((E)-(isopropylimino)methyl)-5-methoxyphenoxy)acetamido)-1H-pyrazol-5-yl)cyclobutyl isopropylcarbamate], for which the solubility at 2 h in data set [1] was 6.7 µM (≈ 3.27 µg/mL).

For the molecule `COc1cc(O)c(/C=N/C(C)C)c(OCC(=O)Nc2cc([C@H]3CC[C@@H](OC(=O)N4C5COCC4C5)C3)[nH]n2)c1` [Compound 231a, (1R,3S)-3-(3-(2-(3-hydroxy-2-((E)-(isopropylimino)methyl)-5-methoxyphenoxy)acetamido)-1H-pyrazol-5-yl)cyclopentyl 3-oxa-6-azabicyclo[3.1.1]heptane-6-carboxylate], in data set [2], the “Prodrug Mouse % F” value turned out to be 2.8% and the “Prodrug AUCinf” value is 12.9 µM·h.

Regarding `COc1cc(O)c(/C=N/C(C)C)c(OCC(=O)Nc2cc([C@H]3CC[C@@H](OC(=O)N4CC5CC(C4)O5)C3)[nH]n2)c1` [Compound 235a, (1R,3S)-3-(3-(2-(3-hydroxy-2-((E)-(isopropylimino)methyl)-5-methoxyphenoxy)acetamido)-1H-pyrazol-5-yl)cyclopentyl 6-oxa-3-azabicyclo[3.1.1]heptane-3-carboxylate], in data set [2], the “Prodrug Mouse % F” value is 3.2% and the “Prodrug AUCinf” value was 15.2 µM·h.

With `COc1cc(O)c(/C=N/C(C)C)c(OCC(=O)Nc2cc([C@H]3CC[C@@H](OC(=O)NC4(C)CC4)C3)[nH]n2)c1` [Compound 251a, (1R,3S)-3-(3-(2-(3-hydroxy-2-((E)-(isopropylimino)methyl)-5-methoxyphenoxy)acetamido)-1H-pyrazol-5-yl)cyclopentyl (1-methylcyclopropyl)carbamate], in data set [1], the solubility at 2 h stood at 50 µM (≈ 25.7 µg/mL).

As for `CCC/N=C/c1c(O)cc(OC)cc1OCC(=O)Nc1cc([C@H]2CC[C@@H](OC(=O)NC3(C)CC3)C2)[nH]n1` [Compound 251b, (1R,3S)-3-(3-(2-(3-hydroxy-5-methoxy-2-((E)-(propylimino)methyl)phenoxy)acetamido)-1H-pyrazol-5-yl)cyclopentyl (1-methylcyclopropyl)carbamate], the solubility at 2 h in data set [1] was 41 µM (≈ 21.1 µg/mL).

As to `CC/N=C/c1c(O)cc(OC)cc1OCC(=O)Nc1cc([C@H]2CC[C@@H](OC(=O)NC3(C)CC3)C2)[nH]n1` [Compound 251c, (1R,3S)-3-(3-(2-(2-((E)-(ethylimino)methyl)-3-hydroxy-5-methoxyphenoxy)acetamido)-1H-pyrazol-5-yl)cyclopentyl (1-methylcyclopropyl)carbamate], the solubility at 2 h in data set [1] was 48 µM (≈ 24 µg/mL).

The term solubility denotes the dissolved amount per volume that the medium holds.
